Test results reported in patent US6506555B1, “Use of HIV protease inhibiting compounds” (Institut National de la Sante et de la Recherche Medicale …, priority 1998, dated 2003).
Where a name gives a salt, the structure may show the parent alone. Read-outs that look alike come from different tables or passages of the source.

Tests used:
[1] = target: T1, 20S proteasomes isolated from murine B8 fibroblasts (Mus musculus, UniProt O55234+P70195+Q60692); assay: Hydrolysis of fluorogenic substrates by isolated 20S proteasomes; assay type: biochemical; conditions: for "chimotrypsin-like" activity (hydrolysis of Suc-LLVY-MCA), comparison of four HIV-1 protease inhibitors: different batch of purified proteasomes, increasing concentrations
T1 construct: 20S proteasomes isolated from murine B8 fibroblasts; endogenous in cells; host or cells: murine B8 fibroblasts; 20S proteasome purified from the cells
Method: FIGS. 4B, 4C and 4D show the hydrolysis of the fluorogenic substrate (100 μM Suc-LLVY-MCA, 100 μM (Z)-GGL-MCA and 400 μM Bz-VGR-MCA) of the 20S proteasomes isolated from murine B8 fibroblasts, as a function of variable concentrations of ritonavir and of LLnL (N-acetyl-L-leucinyl-L-leucinal-L-norleucinal, known inhibitor of the proteasome). The results are reported for one hour of digestion with the 20S proteasome (500 ng) in a final volume of 100 μl. The values were located in a linear detection domain and are the mean values of triplicates with standard errors of less than 3%.
The hydrolysis of Suc-LLVY-MCA by the 20S murine proteasomes was tested according to the method described in Example 4.2. under identical conditions except for the fact that a different batch of purified proteasomes was used. The hydrolysis of Suc-LLVY-MCA was measured in the presence of increasing concentrations of ritonavir, nelfinavir (Roche), saquinavir (mesylate) and indinavir (active ingredient of Crixivan® marketed by Merck and Sharp and Dohme). The HIV protease inhibitors were dissolved beforehand in ethanol, methanol, DMSO and water respectively, for use in vitro (FIG. 4E).

cytotoxic T lymphocytes [2] = assay type: in vivo, C57BL/6 mice; conditions: splenocytes eight days after i.v. LCMV-WE; EL4 cells sensitized with GP33-41 or NP peptide
cytotoxic T lymphocytes [3] = assay type: in vivo, C57BL/6 mice; conditions: for swelling of the footpad after injection of LCMV: mice infected in the footpad with LCMV-WE, swelling after seven to eight days
[4] = patients with hepatic cytolysis (cytolysis +)
[5] = patients without hepatic cytolysis (cytolysis −)
[6] = 100 μM substrate, one hour digestion, 500 ng 20S proteasome

Cc1c(O)cccc1C(=O)N[C@@H](CSc1ccccc1)[C@H](O)CN1C[C@H]2CCCC[C@H]2C[C@H]1C(=O)NC(C)(C)C [nelfinavir]
"chimotrypsin-like" activity (hydrolysis of Suc-LLVY-MCA), comparison of four HIV-1 protease inhibitors [1]: no inhibition
lysis of the target cells (direct lysis ex vivo after systemic infection) (cytotoxic T lymphocytes [2]): not inhibited
swelling of the footpad after injection of LCMV (cytotoxic T lymphocytes [3]): not inhibited

CC(C)(C)NC(=O)[C@@H]1C[C@@H]2CCCC[C@@H]2CN1C[C@@H](O)[C@H](Cc1ccccc1)NC(=O)[C@H](CC(N)=O)NC(=O)c1ccc2ccccc2n1 [saquinavir mesylate]
"chimotrypsin-like" activity (hydrolysis of Suc-LLVY-MCA), comparison of four HIV-1 protease inhibitors [1]: inhibits

CC(C)(C)NC(=O)[C@@H]1CN(Cc2cccnc2)CCN1C[C@@H](O)C[C@@H](Cc1ccccc1)C(=O)N[C@H]1c2ccccc2C[C@H]1O [indinavir]
"chimotrypsin-like" activity (hydrolysis of Suc-LLVY-MCA), comparison of four HIV-1 protease inhibitors [1]: no inhibition
lysis of the target cells (direct lysis ex vivo after systemic infection) (cytotoxic T lymphocytes [2]): not inhibited
swelling of the footpad after injection of LCMV (cytotoxic T lymphocytes [3]): not inhibited
anti-HCV antibody titre (HCV; during the therapy): No increase
patients in whom the ALAT concentrations increased (HCV; patients coinfected with HCV and HIV): 10%
Ac index (variation of anti-HCV antibody titre, ratio of the optical densities) (HCV; [4]): 0.98
variation of CD4 (HCV; [4]): 29.5 cells /mm^3
variation of CD8 (HCV; [4]): 203.5 cells /mm^3
variation of HCV-VL (viral HCV load) (HCV; [4]): 2.25 log10 of copies of RNA/ml
Ac index (variation of anti-HCV antibody titre, ratio of the optical densities) (HCV; [5]): 1.01(+/−0.13)
variation of CD4 (HCV; [5]): 21.1(+/−68) cells /mm^3
variation of CD8 (HCV; [5]): 9.2(+/−222) cells /mm^3
variation of HCV-VL (viral HCV load) (HCV; [5]): +0.41 log10 of copies of RNA/ml
variation of HCV-VL (viral HCV load) (HCV; patients without hepatic cytolysis (cytolysis −), listed as IDN): 0.41(+/−0.79) log10 of copies of RNA/ml

CC(C)(C)NC(=O)[C@@H]1C[C@@H]2CCCC[C@@H]2CN1C[C@@H](O)[C@H](Cc1ccccc1)NC(=O)[C@H](CC(N)=O)NC(=O)c1ccc2ccccc2n1 [saquinavir]
"chymotrypsin-like" activity of the proteasome ([1]; summary statement): inhibited
"trypsin" activity of the proteasome ([1]; summary statement): increased
inhibition of the swelling of the footpads (cytotoxic T lymphocytes [3]; 7th day after the treatment, oral dose of 4 mg per day): up to 73%

N-acetyl-L-leucinyl-L-leucinal-L-norleucinal [LLnL]
hydrolysis of the fluorogenic substrate Suc-LLVY-MCA [1, 6]: inhibits in a similar manner
hydrolysis of the substrate (Z)-GGL-MCA [1, 6]: inhibits in a similar manner
cleavage of the substrate Bz-VGR-MCA ("trypsin" type activity) ([1]; 400 μM substrate, one hour digestion, 500 ng 20S proteasome): inhibits in a similar manner
